According to patent US20040115126A1, “Compositions and methods for the non-invasive detection of polypeptides in vivo” (The Regents of the University of Michigan, priority 2002, published 2004):

B1: TRAIL: TNF-related apoptosis inducing ligand (protein, UniProt P50591 1-281, looked up)
Tumor necrosis factor ligand …: MAMMEVQGGPSLGQTCVLIVIFTVLLQSLCVAVTYVYFTNELKQMQDKYSKSGIACFLKEDDSYWDPNDEESMNSPCWQVKWQLRQLVRKMILRTSEETISTVQEKQQNISPLVRERGPQRVAAHITGTRGRSNTLSSPNSKNEKALGRKINSWESSRSGHSFLSNLHLRNGELVIHEKGFYYIYSQTYFRFQEEIKENTKNDKQMVQYIYKYTSYPDPILLMKSARNSCWSKDAEYGLYSIYQGGIFELKENDRIFVSVTNEHLIDMDHEASFFGAFLVG

Key:
[1] = system: 9L gliosarcoma cells genetically engineered to stably express firefly luciferase (9LLuc); assay: BCNU chemotherapy of orthotopic 9L-Luc rat brain tumors, log cell kill from serial MRI and BLI; assay type: in vivo; settings: intracerebral 9LLuc tumor, treated 16 days after implantation, mean ±SEM, n=5
Description: Current assessment of orthotopic tumor models in animals utilizes survival as the primary therapeutic endpoint. In vivo bioluminescence imaging ([…]) is a sensitive imaging modality that is rapid and accessible, and comprises an ideal tool for evaluating antineoplastic therapies. Using human tumor cell lines constitutively expressing luciferase, the kinetics of tumor growth and response to therapy have been assessed in intraperitoneal, subcutaneous and intravascular cancer models. […] Therefore, the ability of BLI to noninvasively quantitate the growth and therapeutic-induced cell kill of orthotopic rat brain tumors derived from 9L gliosarcoma cells genetically engineered to stably express firefly luciferase (9L^Luc) was investigated.
Intracerebral tumor burden was monitored over time by quantifying photon emission and tumor volume using a cryogenically-cooled CCD camera and magnetic resonance imaging (MRI), respectively. Excellent correlation (r=0.91) between detected photons and tumor volume was found.
FIGS. 5A-5O show a temporal analysis of the response of a 9L^Luc tumor to BCNU chemotherapy. […] Tumor volume was monitored with T2-weighted MRI (FIGS. 5A-5F) and infra-tumoral luciferase activity was monitored with BLI (FIGS. 5G-5L). […] Quantitative analysis of tumor progression and response to BCNU chemotherapy is shown by the graph FIG. 50. […]

[2] = system: D-54 derived stable cell line expressing a caspase-3 reporter molecule; assay: Non-invasive bioluminescence imaging of apoptosis in D-54 caspase-3 reporter tumors in nude mice; assay type: in vivo; settings: 50 ug intratumorally, s.q. D-54 reporter tumors in nude mice, IVIS imaging after luciferin
Description: FIG. 6 depicts one strategy for imaging apoptosis. In this example, an estrogen regulatory domain results in silencing of luciferase due to sequestration. Activation of caspase-3 during apoptosis results in cleavage at the DEVD site, thus, releasing luciferase from the silencing effects of the estrogen regulatory domain. The free luciferase can, in the presence of luciferin, generate bioluminescense which can be imaged in vitro or in vivo using a Xenogen camera system.
FIGS. 8A and 8B depict non-invasive imaging of apoptosis. D-54 derived stable cell line expressing a caspase-3 reporter molecule similar to that described in FIG. 6 was implanted s.q. into nude mice. When the tumors reached a palpatable size they were treated with vector only (PBS, Panel A) or with 50 ug of TRAIL intratumoraly (panel B). Bioluminescent activity within the tumor was then measured after injection of luciferin using a IVIS imaging system.

[3] = system: D-54 cells expressing ER-Luc-ER caspase-3 reporter; assay: Western blot of caspase-3 reporter (ER-Luc-ER) cleavage in D-54 cells; assay type: cell-based; settings: various concentrations for 3 hrs
Method: FIG. 7 depicts a western blot showing induction of apoptosis. In D-54 cells, a caspase-3 reporter construct analogous to the one described in FIG. 6 except with ER domains as well as the caspase-3 cleavage sequence (DEVD) were present on the amino and carboxy termini (ER-Luc-ER) was used in the above studies. […] D-54 cells expressing this molecule were treated with TRAIL (TNF-related apoptosis inducing ligand) at various concentrations for 3 hrs.

Molecule	Log cell kill calculated using BLI ([1]; BLI photon emission)	Log cell kill calculated using MRI ([1]; T2-weighted MRI tumor volume)	increase in bioluminescence compared to the vector control [2]	cleavage of ER-Luc-ER reporter (luciferase specific antibody western blot) [3]
O=NN(CCCl)C(=O)NCCCl [BCNU, 1,3-bis(2-chloroethyl)-1 nitrosourea]	1.84±0.73	1.78±0.36		
B1			2-3 ×	cleaved to a 90 kD molecule (ER-Luc) and subsequently to Luc (60 kD)
